Key:
[1] = Cytotoxicity against human MT4 cells assessed as reduction in cell viability after 4 to 5 days by Cell-Titer Glo assay; assay type: cell-based; details: MT4 cells
[2] = Lipophilicity, log D of the compound after 30 mins by HPLC/UV method; assay type: physicochemical
[3] = Half life in human plasma at 2 uM by LC/MS/MS analysis; assay type: ADME, cell-free
[4] = test system: Ebolavirus; experiment: Antiviral activity against Ebolavirus Kikwit infected in human HeLa cells assessed as reduction in viral glycoprotein levels preincubated with cells for 2 hrs followed by viral infection measured after 48 hrs by immunostaining based assay; assay type: functional, cell-based; details: Orthoebolavirus, Kikwit, HeLa
[5] = test system: Ebolavirus; experiment: Antiviral activity against GFP-fused Ebolavirus infected in TERT-immortalized HMVEC assessed as reduction in viral replication preincubated with cells followed by viral infection measured after 3 to 4 days by fluorescence assay; assay type: functional; details: Orthoebolavirus, HMVEC
[6] = Cytotoxicity against human Hep2 cells assessed as reduction in cell viability after 4 to 5 days by Cell-Titer Glo assay; assay type: cell-based, HEp-2; details: HEp-2 cells
[7] = test system: Hepatitis C virus; experiment: Antiviral activity against Hepatitis C virus genotype 1b infected in human HuH7 cells preincubated with cells for 3 days followed by viral infection by luciferase assay; assay type: functional, cell-based, Hepacivirus hominis; details: Hepatitis C virus, genotype 1b, Huh-7
[8] = Cytotoxicity against human HuH7 cells assessed as reduction in cell viability after 3 days by calcein-AM dye based fluorescence assay; set-up: species or system Huh-7; details: Huh-7 cells
[9] = test system: Human orthopneumovirus; experiment: Antiviral activity against Respiratory syncytial virus A2 infected in human Hep2 cells assessed as reduction of virus-induced cytopathic effect after 4 days by Cell-Titer Glo assay; assay type: functional, cell-based; details: human respiratory syncytial virus, A2, HEp-2, 96 h

SMILES | CC50 [1] [µM] | logD at 0.5 h [2] | half-life at 2 µM [3] [h] | EC50 [4] [µM] | EC50 [5] [µM] | CC50 [6] [µM] | EC50 [7] [µM] | CC50 at 72 h [8] [µM] | EC50 [9] [µM]
CCOC(=O)[C@@H](NP(=O)(OC[C@H]1O[C@@](C#N)(c2ccc3c(N)ncnn23)[C@H](O)[C@@H]1O)Oc1ccccc1)C(C)C (some centres undefined) | > 100 | 1.2 | 26.4 | 7.04 | 3.15 | – | – | – | –
N#C[C@@]1(n2cnc3c(N)ncnc32)O[C@H](CO)[C@@H](O)[C@H]1O | > 53 | – | – | – | 56 | > 100 | > 44 | > 88 | > 100
Nc1ncnn2c([C@@H]3O[C@H](CO)[C@@H](O)[C@H]3O)ccc12 | < 0.01 | – | – | – | – | 0.038 | 0.0035 | 0.15 | –
C[C@@]1(O)[C@H](O)[C@@H](CO)O[C@@]1(C#N)c1ccc2c(N)ncnn12 | > 57 | – | – | 50 | > 10 | > 100 | > 44 | > 44 | > 100
C[C@H](NP(=O)(OC[C@H]1O[C@@](C#N)(c2ccc3c(N)ncnn23)[C@H](O)[C@@H]1O)Oc1ccccc1)C(=O)OC1CCC1 (some centres undefined) | 6 | 1.1 | 13.6 | 0.42 | 0.088 | – | – | – | –
C#C[C@@]1(c2ccc3c(N)ncnn23)O[C@H](COP(=O)(N[C@@H](C)C(=O)OCC(CC)CC)Oc2ccccc2)[C@@H](O)[C@H]1O (some centres undefined) | > 32 | – | – | – | 3.9 | > 100 | 6.9 | > 44 | 1.1
CC(C)OC(=O)[C@H](C)N[P@](=O)(OC[C@H]1O[C@@](C#N)(c2ccc3c(N)ncnn23)[C@](C)(O)[C@@H]1OC(=O)C(C)C)Oc1ccccc1 [GS-6620] | 7.8 | – | – | > 20 | 40 | 95 | 0.31 | 51 | > 20
N#C[C@@]1(c2ccc3c(N)ncnn23)O[C@H](CO)[C@@H](O)[C@H]1F | 32 | – | – | – | – | – | > 44 | > 44 | > 100
C[C@H](N[P@](=O)(OC[C@H]1O[C@@](C#N)(c2ccc3c(N)ncnn23)[C@H](O)[C@@H]1O)Oc1ccccc1)C(=O)OCC(C)(C)C | 3 | 1.7 | 11.7 | 0.168 | 0.092 | – | – | – | –
CC(C)OC(=O)[C@H](C)NP(=O)(OC[C@H]1O[C@@](C#N)(n2ccc(N)nc2=O)[C@H](O)[C@@H]1O)Oc1ccccc1 (some centres undefined) | 53 | – | – | > 20 | – | > 100 | 2.5 | > 44 | 63
C[C@H](NP(=O)(OC[C@H]1O[C@@](C#N)(c2ccc3c(N)ncnn23)[C@H](O)[C@@H]1O)Oc1ccccc1)C(=O)OC(C)(C)C (some centres undefined) | > 100 | 1.3 | 26.4 | 30.4 | 3.79 | – | – | – | –
N#C[C@@]1(n2ccc(N)nc2=O)O[C@H](CO)[C@@H](O)[C@H]1O | > 57 | – | – | > 50 | > 10 | > 100 | 12 | > 44 | 7.3
CCC(CC)COC(=O)[C@H](C)NP(=O)(OC[C@H]1O[C@@](C#N)(c2ccc3c(N)ncnn23)[C@](C)(O)[C@@H]1O)Oc1ccccc1 (some centres undefined) | 1.4 | – | – | 27 | 13 | > 50 | 0.37 | > 44 | > 50
C#C[C@@]1(c2ccc3c(N)ncnn23)O[C@H](CO)[C@@H](O)[C@H]1O | 120 | – | – | – | – | > 200 | > 88 | > 88 | > 200
C[C@@]1(c2ccc3c(N)ncnn23)O[C@H](CO)[C@@H](O)[C@H]1O | 4.5 | – | – | – | > 10 | 93 | 38 | 62 | 5.5
CCOC(=O)[C@H](C)NP(=O)(N[C@@H](C)C(=O)OCC)OC[C@H]1O[C@@](C#N)(c2ccc3c(N)ncnn23)[C@H](O)[C@@H]1O | > 53 | < 0.3 | – | 20.4 | 9.1 | – | – | – | –

Reference: ChEMBL document CHEMBL4007399, “Discovery and Synthesis of a Phosphoramidate Prodrug of a Pyrrolo[2,1-f][triazin-4-amino] Adenine C-Nucleoside (GS-5734) for the Treatment of Ebola and Emerging Viruses” (J Med Chem, 2017)
